Assay results: patent publication US3973021A, “2-[2-(5-Nitro-2-furyl)vinyl]-4-(phydroxyanilino)quinazoline as a bactericide” (Diamond Shamrock Corporation, priority 1975, dated 1976)

Tests used:
[1] = Example XII: 4 week chick feeding test, repeat with five replicates (Table VII); assay type: in vivo, broiler cross chicks; conditions: 25g/T
Streptococcus agalactiae = experiment: Bactericide test (agar streak, growth inhibition rated 0/50/100); assay type: cell-based
Description: (§1) Test formulations were examined for bactericidal and/or bacteriostatic activity against the test organisms shown in Tables A and B. These organisms were chosen as being representative of commercially important pathogens affecting animal agriculture. The antibiotic chlortetracycline was chosen as a positive control, since it has a broad spectrum of activity against a large number of organisms, and its activity can be used for comparative purposes.
(§2) Basic test formulations of the product of Examples I, II, III, and of chlortetracycline were prepared by dissolving 16 mg (0.016 g) in 2.0 ml of stock emulsifier solution (0.25% Triton X-155 in acetone by volume) and making each solution up to 50 ml with deionized water. The concentration of the test compound in the basic formulation was 320 ppm. Lower concentrations of the test compound were obtained by diluting the basic formulation with a 4% solution of the stock emulsifier in deionized water so that each dilution in the series differed only in test compound content.
(§3) Nutrient-tryptic soy agar (NTA) consisting of 2.0% Difco Bactoagar 0.8% nutrient broth (Difco), and 0.5% tryptic soy broth (Difco) was prepared and sterilized by autoclaving. A 2 ml aliquot of each test formulation was added to 8 ml of molten NTA. This mixture was then plated in a sterile polystyrene petri dish (100 × 15 mm). After the agar was set, suspensions of each of the test organisms were simultaneously streaked onto the surface of the agar. The inoculated plates were incubated for 48 hr. at 28°C. The inhibition of growth of each organism was rated by visual comparison with the organism developing on non-treated agar. Growth inhibition reported as percent control was rated in three categories as follows: 0% control, growth equivalent to that on non-treated agar; 50% control, sparse development and separated colonies; 100% control, no visible growth or development of colonies.

Salmonella typhimurium = experiment: as above; assay type: cell-based; conditions: Salmonella enterica
Description: as §1, §2, §3

[2] = tested on: Erysipelothrix rhusiopathiae; experiment: as above; assay type: cell-based
Description: as §1, §2, §3

Vibrio coli = experiment: as above; assay type: cell-based; conditions: Campylobacter coli
Description: as §1, §2, §3

[3] = tested on: Bordetella bronchiseptica; experiment: as above; assay type: cell-based
Description: as §1, §2, §3

Streptococcus group E = experiment: as above; assay type: cell-based
Description: as §1, §2, §3

Salmonella cholerasuis = experiment: as above; assay type: cell-based
Description: as §1, §2, §3
(§4) Test formulations of the product of Example IV were examined for bactericidal and/or bacteriostatic activity against the test organisms shown in Table B using the Bactericide Test described in Example V. The inhibition of organism growth with each diluted test formulation was rated visually by comparison with the organism developing on a non-treated control agar plate. Growth inhibition reported as percent control was rated in three categories as follows: 0% control, growth equivalent to that on non-treated agar; 50% control is sparse development and separated colonies; and 100% control, development of individual colonies was not apparent.

Escherichia coli = experiment: as above; assay type: cell-based
Description: as §1, §2, §3, §4

Salmonella gallinarum = experiment: as above; assay type: cell-based; conditions: Salmonella enterica
Description: as §1, §2, §3, §4

Streptococcus faecalis = experiment: as above; assay type: cell-based; conditions: Enterococcus faecalis
Description: as §1, §2, §3, §4

Staphylococcus aureus = experiment: as above; assay type: cell-based
Description: as §1, §2, §3, §4

[4] = Example XII: 4 week chick feeding test, first set (Table VI); assay type: in vivo, broiler cross chicks; conditions: 25g/T
Description: This example compares growth promotion activity of the product of Example I with other growth promotants at a concentration of 25 g/T in the Basal Ration described in Example VII. The other growth promotants include the product described in Example I of U.S. Pat. No. 3,542,784 -- Burch and quinoxaline-1,4-dioxide. Day old broiler cross chicks were weight equalized into groups of 8 chicks each, and four replicates of 8 chicks each were fed the experimental rations over a 4 week period.
The growth promotion tests described in Example X were repeated with the additional testing the products of Examples II and III.

With `O=[N+]([O-])c1ccc(C=Cc2nc(Nc3ccccc3O)c3ccccc3n2)o1` [Example III, 2-[2-(5-nitro-furyl)vinyl]-4-(o-hydroxyanilino)quinazoline] the “Average 4 Week Performance: Feed Efficiency” value [1] was 1.669, the “Average 4 Week Performance: Gain” value [1] was 723.7 g and the “Improved Response Over Basal Ration: Feed Efficiency” value [1] was “+6.5%”. The “Improved Response Over Basal Ration: Gain” value [1] was “+6.0%”, the inhibition at 0.125 ppm (Streptococcus agalactiae; 0.125 ppm) was 100% and the inhibition at 0.25 ppm (Streptococcus agalactiae; 0.25 ppm) was 100%. For the same compound, the inhibition at 0.5 ppm (Streptococcus agalactiae; 0.5 ppm) was 100%, the inhibition at 1 ppm (Streptococcus agalactiae; 1 ppm) was 100% and the inhibition at 2 ppm (Streptococcus agalactiae; 2 ppm) was 100%. It also gave an inhibition at 4 ppm (Streptococcus agalactiae; 4 ppm) of 100%, an inhibition at 8 ppm (Streptococcus agalactiae; 8 ppm) of 100% and an inhibition at 16 ppm (Streptococcus agalactiae; 16 ppm) of 100%. For the same compound, the inhibition at 32 ppm (Streptococcus agalactiae; 32 ppm) was 100%, the inhibition at 64 ppm (Streptococcus agalactiae; 64 ppm) was 100% and the inhibition at 0.125 ppm (Salmonella typhimurium; 0.125 ppm) was 0%. The inhibition at 0.25 ppm (Salmonella typhimurium; 0.25 ppm) was 0%, the inhibition at 0.5 ppm (Salmonella typhimurium; 0.5 ppm) was 0% and the inhibition at 1 ppm (Salmonella typhimurium; 1 ppm) was 0%. For the same compound, the inhibition at 2 ppm (Salmonella typhimurium; 2 ppm) was 0%, the inhibition at 4 ppm (Salmonella typhimurium; 4 ppm) was 0% and the inhibition at 8 ppm (Salmonella typhimurium; 8 ppm) was 0%. For the same compound, the inhibition at 16 ppm (Salmonella typhimurium; 16 ppm) was 0%, the inhibition at 32 ppm (Salmonella typhimurium; 32 ppm) was 0% and the inhibition at 64 ppm (Salmonella typhimurium; 64 ppm) was 0%. The inhibition at 0.125 ppm ([2]; 0.125 ppm) was 100%, the inhibition at 0.25 ppm ([2]; 0.25 ppm) was 100% and the inhibition at 0.5 ppm ([2]; 0.5 ppm) was 100%. It also gave an inhibition at 1 ppm ([2]; 1 ppm) of 100%, an inhibition at 2 ppm ([2]; 2 ppm) of 100% and an inhibition at 4 ppm ([2]; 4 ppm) of 100%. For the same compound, the inhibition at 8 ppm ([2]; 8 ppm) was 100%, the inhibition at 16 ppm ([2]; 16 ppm) was 100% and the inhibition at 32 ppm ([2]; 32 ppm) was 100%. It also gave an inhibition at 64 ppm ([2]; 64 ppm) of 100%, an inhibition at 0.125 ppm (Vibrio coli; 0.125 ppm) of 100% and an inhibition at 0.25 ppm (Vibrio coli; 0.25 ppm) of 100%. For the same compound, the inhibition at 0.5 ppm (Vibrio coli; 0.5 ppm) was 100%, the inhibition at 1 ppm (Vibrio coli; 1 ppm) was 100% and the inhibition at 2 ppm (Vibrio coli; 2 ppm) was 100%. It also gave an inhibition at 4 ppm (Vibrio coli; 4 ppm) of 100%, an inhibition at 8 ppm (Vibrio coli; 8 ppm) of 100% and an inhibition at 16 ppm (Vibrio coli; 16 ppm) of 100%. For the same compound, the inhibition at 32 ppm (Vibrio coli; 32 ppm) was 100%, the inhibition at 64 ppm (Vibrio coli; 64 ppm) was 100% and the inhibition at 0.125 ppm ([3]; 0.125 ppm) was 100%. It also gave an inhibition at 0.25 ppm ([3]; 0.25 ppm) of 100%, an inhibition at 0.5 ppm ([3]; 0.5 ppm) of 100% and an inhibition at 1 ppm ([3]; 1 ppm) of 100%. The inhibition at 2 ppm ([3]; 2 ppm) was 100%, the inhibition at 4 ppm ([3]; 4 ppm) was 100% and the inhibition at 8 ppm ([3]; 8 ppm) was 100%. The inhibition at 16 ppm ([3]; 16 ppm) was 100%, the inhibition at 32 ppm ([3]; 32 ppm) was 100% and the inhibition at 64 ppm ([3]; 64 ppm) was 100%. For the same compound, the inhibition at 0.125 ppm (Streptococcus group E; 0.125 ppm) was 100%, the inhibition at 0.25 ppm (Streptococcus group E; 0.25 ppm) was 100% and the inhibition at 0.5 ppm (Streptococcus group E; 0.5 ppm) was 100%. It also gave an inhibition at 1 ppm (Streptococcus group E; 1 ppm) of 100%, an inhibition at 2 ppm (Streptococcus group E; 2 ppm) of 100% and an inhibition at 4 ppm (Streptococcus group E; 4 ppm) of 100%. The inhibition at 8 ppm (Streptococcus group E; 8 ppm) was 100%, the inhibition at 16 ppm (Streptococcus group E; 16 ppm) was 100% and the inhibition at 32 ppm (Streptococcus group E; 32 ppm) was 100%. The inhibition at 64 ppm (Streptococcus group E; 64 ppm) was 100%, the inhibition at 0.125 ppm (Salmonella cholerasuis; 0.125 ppm) was 0% and the inhibition at 0.25 ppm (Salmonella cholerasuis; 0.25 ppm) was 0%. It also gave an inhibition at 0.5 ppm (Salmonella cholerasuis; 0.5 ppm) of 0%, an inhibition at 1 ppm (Salmonella cholerasuis; 1 ppm) of 0% and an inhibition at 2 ppm (Salmonella cholerasuis; 2 ppm) of 0%. It also gave an inhibition at 4 ppm (Salmonella cholerasuis; 4 ppm) of 50%, an inhibition at 8 ppm (Salmonella cholerasuis; 8 ppm) of 50% and an inhibition at 16 ppm (Salmonella cholerasuis; 16 ppm) of 100%. The inhibition at 32 ppm (Salmonella cholerasuis; 32 ppm) was 100%, the inhibition at 64 ppm (Salmonella cholerasuis; 64 ppm) was 100% and the inhibition at 0.125 ppm (Escherichia coli; 0.125 ppm) was 0%. It also gave an inhibition at 0.25 ppm (Escherichia coli; 0.25 ppm) of 0%, an inhibition at 0.5 ppm (Escherichia coli; 0.5 ppm) of 0% and an inhibition at 1 ppm (Escherichia coli; 1 ppm) of 0%. The inhibition at 2 ppm (Escherichia coli; 2 ppm) was 0%, the inhibition at 4 ppm (Escherichia coli; 4 ppm) was 0% and the inhibition at 8 ppm (Escherichia coli; 8 ppm) was 0%. It also gave an inhibition at 16 ppm (Escherichia coli; 16 ppm) of 0%, an inhibition at 32 ppm (Escherichia coli; 32 ppm) of 0% and an inhibition at 64 ppm (Escherichia coli; 64 ppm) of 0%. It also gave an inhibition at 0.125 ppm (Salmonella gallinarum; 0.125 ppm) of 0%, an inhibition at 0.25 ppm (Salmonella gallinarum; 0.25 ppm) of 0% and an inhibition at 0.5 ppm (Salmonella gallinarum; 0.5 ppm) of 0%. The inhibition at 1 ppm (Salmonella gallinarum; 1 ppm) was 0%, the inhibition at 2 ppm (Salmonella gallinarum; 2 ppm) was 0% and the inhibition at 4 ppm (Salmonella gallinarum; 4 ppm) was 50%. It also gave an inhibition at 8 ppm (Salmonella gallinarum; 8 ppm) of 50%, an inhibition at 16 ppm (Salmonella gallinarum; 16 ppm) of 100% and an inhibition at 32 ppm (Salmonella gallinarum; 32 ppm) of 100%. For the same compound, the inhibition at 64 ppm (Salmonella gallinarum; 64 ppm) was 100%, the inhibition at 0.125 ppm (Streptococcus faecalis; 0.125 ppm) was 0% and the inhibition at 0.25 ppm (Streptococcus faecalis; 0.25 ppm) was 0%. It also gave an inhibition at 0.5 ppm (Streptococcus faecalis; 0.5 ppm) of 50%, an inhibition at 1 ppm (Streptococcus faecalis; 1 ppm) of 100% and an inhibition at 2 ppm (Streptococcus faecalis; 2 ppm) of 100%. For the same compound, the inhibition at 4 ppm (Streptococcus faecalis; 4 ppm) was 100%, the inhibition at 8 ppm (Streptococcus faecalis; 8 ppm) was 100% and the inhibition at 16 ppm (Streptococcus faecalis; 16 ppm) was 100%. It also gave an inhibition at 32 ppm (Streptococcus faecalis; 32 ppm) of 100%, an inhibition at 64 ppm (Streptococcus faecalis; 64 ppm) of 100% and an inhibition at 0.125 ppm (Staphylococcus aureus; 0.125 ppm) of 0%. For the same compound, the inhibition at 0.25 ppm (Staphylococcus aureus; 0.25 ppm) was 0%, the inhibition at 0.5 ppm (Staphylococcus aureus; 0.5 ppm) was 0% and the inhibition at 1 ppm (Staphylococcus aureus; 1 ppm) was 0%. For the same compound, the inhibition at 2 ppm (Staphylococcus aureus; 2 ppm) was 0%, the inhibition at 4 ppm (Staphylococcus aureus; 4 ppm) was 0% and the inhibition at 8 ppm (Staphylococcus aureus; 8 ppm) was 0%. The inhibition at 16 ppm (Staphylococcus aureus; 16 ppm) was 0%, the inhibition at 32 ppm (Staphylococcus aureus; 32 ppm) was 0% and the inhibition at 64 ppm (Staphylococcus aureus; 64 ppm) was 0%. For the same compound, the “Average 4 Week Performance: Feed Efficiency” value [4] was 1.597, the “Average 4 Week Performance: Gain” value [4] was 766.9 g and the “Improved Response Over Basal Ration: Feed Efficiency” value [4] was “+2.3%”. The “Improved Response Over Basal Ration: Gain” value [4] was “+3.1%”.
